Counter-ions that a name gives are not always drawn.
Molecular target: T1, α2-Adrenoceptor (Homo sapiens, UniProt P08913)
T1 construct: from tissue; host or cells: human platelets (membranes)
T1 sequence (P08913 1-465): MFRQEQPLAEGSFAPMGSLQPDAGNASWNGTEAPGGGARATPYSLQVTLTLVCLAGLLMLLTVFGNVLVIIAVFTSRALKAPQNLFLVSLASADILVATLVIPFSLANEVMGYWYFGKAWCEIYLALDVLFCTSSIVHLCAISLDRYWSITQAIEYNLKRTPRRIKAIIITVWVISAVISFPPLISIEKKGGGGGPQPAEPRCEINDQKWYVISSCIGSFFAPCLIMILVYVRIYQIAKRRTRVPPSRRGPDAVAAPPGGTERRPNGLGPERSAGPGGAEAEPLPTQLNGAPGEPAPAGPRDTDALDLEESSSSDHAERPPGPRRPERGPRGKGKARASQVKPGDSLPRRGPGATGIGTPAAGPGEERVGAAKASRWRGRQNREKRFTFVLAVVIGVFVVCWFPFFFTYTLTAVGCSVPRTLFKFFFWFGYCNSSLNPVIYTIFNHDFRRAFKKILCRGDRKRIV
Assay: α2-Adrenoceptor Binding ([3H] Rauwolscine, human platelet membranes)
Conditions: [3H] Rauwolscine 0.5-1.0 nM, 30 minutes at 30° C., read-out: Binding Affinity. Ki
Description: (A) α2-Adrenoceptor Binding
Human platelet membranes were incubated with [^3 H] Rauwolscine (0.5-1.0 nM) for 30 minutes at 30° C. with varying concentrates of the drug (0.1-10,000 nM). The binding assay was stopped by filtering and rinsing on GF/B glass fibre filters. Binding Affinity (Ki) was calculated using the Ching Prussoff equation.

Compound	Ki [nM]
Fc1ccc2c(c1)CN(CC1=NCCN1)C2 [Example 5, 2-[2H-(5-Fluoro-1,3-dihydroisoindole)methyl]-4,5-dihydroimidazole]	164
c1ccc2c(c1)CCN(CC1=NCCN1)C2 [Example 4, 2-[(1,2,3,4-Tetrahydroisoquinoline)methyl]-4,5-dihydroimidazole]	20
COc1ccc2c(c1)CN(CC1=NCCN1)C2 [Example 6, 2-[2H-(5-Methoxy-1,3-dihydroisoindole)methyl]-4,5 dihydroimidazole dihydrochloride]	89
Cc1ccc2c(c1)CN(CC1=NCCN1)C2 [Example 7, 2-[2H-(5-Methyl-1,3-dihydroisoindole)methyl]-4,5-dihydroimidazole]	22

These reach a lower Ki. Values come first.

Ki [nM]	Compound
5	c1ccc2c(c1)CN(CC1=NCCN1)C2 [Example 1, 2-[2H-(1,3-Dihydroisoindole)methyl]-4,5-dihydroimidazole]
7	Clc1cccc2c1CN(CC1=NCCN1)C2 [Example 2, 2-[2H-(4-Chloro-1,3-dihydroisoindole)methyl]-4,5-dihydroimidazole]
13	Clc1ccc2c(c1)CN(CC1=NCCN1)C2 [Example 3, 2-[2H-(5-Chloro-1,3-dihydroisoindole)methyl]-4,5-dihydroimidazole]

From patent US4863946A, “2-[2H-(1,3-dihydroisoindole)alkylene]-4,5-dihydroimidazoles and pharmaceutical compositions thereof” (Beecham Group plc, priority 1985, dated 1989)
